Measured values from ChEMBL document CHEMBL5365529, “Construction and Evaluation of Novel Dual-function Antifungal Inhibitors and Covalent Organic Framework Carriers Based on the Infection Microenvironment” (J Med Chem, 2023).
Values after ≈ are worked out from the molar mass of the structure shown. Active and inactive are the calls of the source. The rule behind the calls is not given here.

Key:
Candida albicans [1] = assay: Antifungal activity against FLC-resistant Candida albicans 17# assessed as fungal growth inhibition incubated for 72 hrs by CLSI based susceptibility test; format: functional
[2] = molecular target: T1, Lanosterol 14-alpha demethylase (Candida albicans (strain SC5314 / ATCC MYA-2876) (Yeast), UniProt P10613); assay: Inhibition of CYP51 in Candida albicans SC5314 using lanosterol as substrate incubated for 60 mins by HPLC analysis
Candida albicans [3] = assay: Antifungal activity against Candida albicans SC5314 assessed as fungal growth inhibition incubated for 72 hrs by CLSI based susceptibility test; format: functional
Aspergillus fumigatus = assay: Antifungal activity against Aspergillus fumigatus KM8001 assessed as fungal growth inhibition incubated for 72 hrs by CLSI based susceptibility test; format: functional
[4] = molecular target: T2, Programmed cell death 1 ligand 1 (Homo sapiens, UniProt Q9NZQ7); assay: Inhibition of human PD-L1 incubated for 15 mins by ELISA method
Candida albicans [5] = assay: Antifungal activity against FLC-resistant Candida albicans 904 assessed as fungal growth inhibition incubated for 72 hrs by CLSI based susceptibility test; format: functional
[6] = molecular target: T1, Lanosterol 14-alpha demethylase; assay: Inhibition of CYP51 in Candida albicans SC5314 assessed as lanosterol level at 4 ug/ml incubated for 16 hrs by GC-MS analysis relative to control; set-up: scale not given: the % may be the effect or the level left; conditions: at 4 µg/mL
Candida albicans [7] = assay: Antifungal activity against FLC-resistant Candida albicans CaR assessed as fungal growth inhibition incubated for 72 hrs by CLSI based susceptibility test; format: functional
Candida albicans [8] = assay: Antifungal activity against FLC-resistant Candida albicans 901 assessed as fungal growth inhibition incubated for 72 hrs by CLSI based susceptibility test; format: functional
Candida albicans [9] = assay: Antifungal activity against FLC-resistant Candida albicans 632 assessed as fungal growth inhibition incubated for 72 hrs by CLSI based susceptibility test; format: functional
Cryptococcus neoformans = assay: Antifungal activity against Cryptococcus neoformans ZKCC 2209 assessed as fungal growth inhibition incubated for 72 hrs by CLSI based susceptibility test; format: functional
Nakaseomyces glabratus = assay: Antifungal activity against Candida glabrata assessed as fungal growth inhibition incubated for 72 hrs by CLSI based susceptibility test; format: functional
Candida albicans [10] = assay: Induction of apoptosis in Candida albicans SC5314 assessed as necrotic cells incubated for 48 hrs by annexin V-FITC/PI staining based flow cytometry (reference value: 2.12 %); format: functional
Candida tropicalis = assay: Antifungal activity against Candida tropicalis ATCC 1369 assessed as fungal growth inhibition incubated for 72 hrs by CLSI based susceptibility test; format: functional
Candida albicans [11] = assay: Induction of mitochondrial membrane depolarization in Candida albicans SC5314 by JC-1 staining based flow cytometry (reference value: 12.51 %); format: functional
Candida albicans [12] = assay: Induction of apoptosis in Candida albicans SC5314 assessed as apoptotic cells incubated for 48 hrs by annexin V-FITC/PI staining based flow cytometry (reference value: 2.12 %); format: functional
[13] = molecular target: T1, Lanosterol 14-alpha demethylase; assay: Inhibition of CYP51 in Candida albicans SC5314 assessed as unknown sterol level at 4 ug/ml incubated for 16 hrs by GC-MS analysis (reference value: 5.35 %); set-up: scale not given: the % may be the effect or the level left; conditions: at 4 µg/mL
Candida albicans [14] = assay: Induction of apoptosis in Candida albicans SC5314 assessed as increase in ROS level at 1 uM/ml incubated for 48 hrs by fluorescence microscopy; format: functional, organism-based
[15] = molecular target: T1, Lanosterol 14-alpha demethylase; assay: Inhibition of CYP51 in Candida albicans SC5314 assessed as ergosterol level at 4 ug/ml incubated for 16 hrs by GC-MS analysis (reference value: 92.07 %); set-up: scale not given: the % may be the effect or the level left; conditions: at 4 µg/mL
[16] = molecular target: T2, Programmed cell death 1 ligand 1; assay: Binding affinity to PD-L1 (unknown origin) immobilized on carboxy chip assessed as dissociation constant by SPR analysis
Candida albicans [17] = assay: Antifungal activity against Candida albicans 901 infected in BALB/c mouse assessed as repair of tissue damage at 0.5 ug/g administered 6 times measured after 4 days in presence of Ketoconazole by GMS staining based analysis; format: functional, organism-based; conditions: dose 0.5 µg/g, time 4.0 day
[18] = Toxicity in BALB/c mouse infected with Candida albicans 901 assessed as pathological change in liver at 0.5 ug/g administered 6 times measured after 4 days in presence of Ketoconazole by H and E staining based analysis; format: tissue-based; conditions: in vivo, 96 h, dose 0.5 µg/g, time 4 day
Candida albicans [19] = assay: Induction of immunity in BALB/c mouse infected with Candida albicans 901 assessed as decrease in PD-L1 level at 0.5 ug/g administered 6 times measured after 4 days in presence of Ketoconazole by IHC analysis; format: functional, organism-based; conditions: dose 0.5 µg/g, time 4.0 day
[20] = Toxicity in BALB/c mouse infected with Candida albicans 901 assessed as pathological change in heart at 0.5 ug/g administered 6 times measured after 4 days in presence of Ketoconazole by H and E staining based analysis; format: tissue-based; conditions: in vivo, 96 h, dose 0.5 µg/g, time 4 day
Candida albicans [21] = assay: Antifungal activity against Candida albicans 901 infected in BALB/c mouse assessed as inhibition of fungal proliferation at 0.5 ug/g administered 6 times measured after 4 days in presence of Ketoconazole by Masson staining based analysis; format: functional, organism-based; conditions: dose 0.5 µg/g, time 4.0 day
Candida albicans [22] = assay: Antifungal activity against Candida albicans 901 infected in BALB/c mouse assessed as inhibition of fungal proliferation at 0.5 ug/g administered 6 times measured after 4 days in presence of Ketoconazole by GMS staining based analysis; format: functional, organism-based; conditions: dose 0.5 µg/g, time 4.0 day
[23] = Toxicity in BALB/c mouse infected with Candida albicans 901 assessed as pathological change in kidney at 0.5 ug/g administered 6 times measured after 4 days in presence of Ketoconazole by H and E staining based analysis; format: tissue-based; conditions: in vivo, 96 h, dose 0.5 µg/g, time 4 day
Candida albicans [24] = assay: Antifungal activity against Candida albicans 901 infected in BALB/c mouse assessed as decrease in collagen fiber content at 0.5 ug/g administered 6 times measured after 4 days in presence of Ketoconazole by Masson staining based analysis; format: functional, organism-based; conditions: dose 0.5 µg/g, time 4.0 day
Candida albicans [25] = assay: Antifungal activity against Candida albicans 901 infected in BALB/c mouse assessed as decrease in collagen fiber content at 0.5 ug/g administered 6 times measured after 4 days in presence of Ketoconazole by GMS staining based analysis; format: functional, organism-based; conditions: dose 0.5 µg/g, time 4.0 day
[26] = Toxicity in BALB/c mouse infected with Candida albicans 901 assessed as pathological change in spleen at 0.5 ug/g administered 6 times measured after 4 days in presence of Ketoconazole by H and E staining based analysis; format: tissue-based; conditions: in vivo, 96 h, dose 0.5 µg/g, time 4 day
[27] = Toxicity in BALB/c mouse infected with Candida albicans 901 assessed as pathological change in lung at 0.5 ug/g administered 6 times measured after 4 days in presence of Ketoconazole by H and E staining based analysis; format: tissue-based; conditions: in vivo, 96 h, dose 0.5 µg/g, time 4 day
Candida albicans [28] = assay: Induction of immunity in BALB/c mouse infected with Candida albicans 901 assessed as decrease in PD-L1 level at 0.5 ug/g administered 6 times measured after 4 days in presence of Ketoconazole by Western blot analysis; format: functional, organism-based; conditions: dose 0.5 µg/g, time 4.0 day
Candida albicans [29] = assay: Antifungal activity against Candida albicans 901 infected in BALB/c mouse assessed as repair of tissue damage at 0.5 ug/g administered 6 times measured after 4 days in presence of Ketoconazole by Masson staining based analysis; format: functional, organism-based; conditions: dose 0.5 µg/g, time 4.0 day

T1 sequence (P10613 whole entry): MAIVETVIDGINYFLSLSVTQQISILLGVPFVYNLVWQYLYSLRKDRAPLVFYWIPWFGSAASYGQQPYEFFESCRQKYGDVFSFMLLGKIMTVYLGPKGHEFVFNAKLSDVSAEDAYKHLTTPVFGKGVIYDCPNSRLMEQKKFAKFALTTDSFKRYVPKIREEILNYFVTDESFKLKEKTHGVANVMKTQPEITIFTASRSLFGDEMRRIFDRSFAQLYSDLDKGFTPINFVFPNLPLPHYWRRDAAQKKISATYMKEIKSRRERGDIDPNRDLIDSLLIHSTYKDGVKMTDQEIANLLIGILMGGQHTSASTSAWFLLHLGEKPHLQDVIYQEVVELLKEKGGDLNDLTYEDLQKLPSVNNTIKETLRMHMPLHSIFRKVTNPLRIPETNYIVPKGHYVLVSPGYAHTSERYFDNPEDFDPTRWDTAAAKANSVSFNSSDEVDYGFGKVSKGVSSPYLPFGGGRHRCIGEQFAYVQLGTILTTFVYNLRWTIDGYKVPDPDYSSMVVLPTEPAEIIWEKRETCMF
T2 sequence (Q9NZQ7 whole entry): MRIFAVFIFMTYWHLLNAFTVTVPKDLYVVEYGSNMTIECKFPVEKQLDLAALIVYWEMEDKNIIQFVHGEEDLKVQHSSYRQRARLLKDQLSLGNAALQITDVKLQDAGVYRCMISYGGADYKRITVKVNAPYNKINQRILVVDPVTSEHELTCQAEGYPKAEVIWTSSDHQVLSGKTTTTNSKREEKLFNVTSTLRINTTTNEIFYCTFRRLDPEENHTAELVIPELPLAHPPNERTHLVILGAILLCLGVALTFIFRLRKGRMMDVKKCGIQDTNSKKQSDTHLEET

Row | SMILES | MIC50 (Candida albicans [3]) [µg/mL] | MIC50 (Aspergillus fumigatus) [µg/mL] | MIC50 (Cryptococcus neoformans) [µg/mL] | MIC50 (Nakaseomyces glabratus) [µg/mL] | MIC50 (Candida tropicalis) [µg/mL] | also measured
1 | CC(C)OC(=O)[C@@H](Cn1ccnc1)NC(=O)C1CCCN(C(=O)c2cccc(-c3ccccc3)c2)C1 (some centres undefined) | 0.25 (≈ 0.512 µM) | 2 (≈ 4.09 µM) | 0.5 (≈ 1.02 µM) | 0.25 (≈ 0.512 µM) | 0.5 (≈ 1.02 µM) | MIC50 (Candida albicans [1]): ≥ 8 µg/mL; IC50 [2]: 410 nM; IC50 [4]: 63 nM; MIC50 (Candida albicans [5]): ≥ 8 µg/mL; Activity [6]: 12.71%; MIC50 (Candida albicans [7]): 2 µg/mL (≈ 4.09 µM); MIC50 (Candida albicans [8]): 4 µg/mL (≈ 8.19 µM); MIC50 (Candida albicans [9]): 4 µg/mL (≈ 8.19 µM); Activity (Candida albicans [10]): 25.91%; Activity (Candida albicans [11]): 34.74%; Activity (Candida albicans [12]): 25.91%; Activity [13]: 4.96%; Activity (Candida albicans [14]): Active; Activity [15]: 16.08%; Kd [16]: 15 nM
2 | Cc1c(COc2cccc(CN[C@H](Cn3ccnc3)C(=O)OC(C)C)c2)cccc1-c1ccccc1 | 0.25 (≈ 0.517 µM) | 4 (≈ 8.27 µM) | 2 (≈ 4.14 µM) | 0.5 (≈ 1.03 µM) | 0.5 (≈ 1.03 µM) | –
3 | O=C(O)[C@@H](CO)NCc1cc(Cl)c(OCc2cccc(-c3ccccc3)c2Br)cc1OCc1cccnc1 | – | – | – | – | – | Activity (Candida albicans [17]): Active; Activity [18]: Non-Toxic; Activity (Candida albicans [19]): Active; Activity [20]: Non-Toxic; inhibition (Candida albicans [21]): Active; IC50 [4]: 22 nM; inhibition (Candida albicans [22]): Active; Activity [23]: Non-Toxic; Activity (Candida albicans [24]): Active; Activity (Candida albicans [25]): Active; Activity [26]: Non-Toxic; Activity [27]: Non-Toxic; Activity (Candida albicans [28]): Active; Activity (Candida albicans [29]): Active
4 | OC(Cn1cncn1)(Cn1cncn1)c1ccc(F)cc1F [FLUCONAZOLE] | 0.5 (≈ 1.63 µM) | > 8 | 1 (≈ 3.27 µM) | 0.25 (≈ 0.816 µM) | 0.5 (≈ 1.63 µM) | MIC50 (Candida albicans [1]): ≥ 8 µg/mL; MIC50 (Candida albicans [5]): ≥ 8 µg/mL; MIC50 (Candida albicans [7]): ≥ 8 µg/mL; MIC50 (Candida albicans [8]): ≥ 8 µg/mL; MIC50 (Candida albicans [9]): ≥ 8 µg/mL
5 | COC(=O)[C@@H](Cn1cncn1)NC(=O)C1CCCN(Cc2cccc(-c3ccccc3)c2C)C1 (some centres undefined) | 0.5 (≈ 1.08 µM) | 4 (≈ 8.67 µM) | 2 (≈ 4.33 µM) | 2 (≈ 4.33 µM) | 1 (≈ 2.17 µM) | –
6 | COC(=O)[C@@H](Cn1ccnc1)NC(=O)C1CCCN(C(=O)c2cccc(-c3ccccc3)c2)C1 (some centres undefined) | 1 (≈ 2.17 µM) | > 8 | 4 (≈ 8.69 µM) | 0.5 (≈ 1.09 µM) | 2 (≈ 4.34 µM) | –
7 | CCOC(=O)[C@@H](Cn1ccnc1)NCc1cccc(OCc2cccc(-c3ccccc3)c2C)c1 | 0.5 (≈ 1.06 µM) | 4 (≈ 8.52 µM) | 1 (≈ 2.13 µM) | 1 (≈ 2.13 µM) | 0.5 (≈ 1.06 µM) | –
8 | COC(=O)[C@@H](Cn1cncn1)NC(=O)C1CCCN(C(=O)c2cccc(-c3ccccc3)c2)C1 (some centres undefined) | 0.5 (≈ 1.08 µM) | 8 (≈ 17.3 µM) | 1 (≈ 2.17 µM) | 0.5 (≈ 1.08 µM) | 1 (≈ 2.17 µM) | –
9 | CCOC(=O)[C@@H](Cn1ccnc1)NC(=O)C1CCCN(C(=O)c2cccc(-c3ccccc3)c2)C1 (some centres undefined) | 0.5 (≈ 1.05 µM) | 4 (≈ 8.43 µM) | 1 (≈ 2.11 µM) | 1 (≈ 2.11 µM) | 0.5 (≈ 1.05 µM) | –
